From patent US10308899B2, “Liquid automatic dish washing detergent compositions” (Novozymes A/S, priority 2013, dated 2019)
Substitutions are numbered along the chain they refer to. Primed or numbered codes have the meaning given here. The star is where a group is joined. aldehyde′ = not defined here; Cbz = O=C(OCc1ccccc1)*; Moc = COC(=O)*

T1: Protease4 (subtilisin BPN′) (Artificial sequence)
T1 chain: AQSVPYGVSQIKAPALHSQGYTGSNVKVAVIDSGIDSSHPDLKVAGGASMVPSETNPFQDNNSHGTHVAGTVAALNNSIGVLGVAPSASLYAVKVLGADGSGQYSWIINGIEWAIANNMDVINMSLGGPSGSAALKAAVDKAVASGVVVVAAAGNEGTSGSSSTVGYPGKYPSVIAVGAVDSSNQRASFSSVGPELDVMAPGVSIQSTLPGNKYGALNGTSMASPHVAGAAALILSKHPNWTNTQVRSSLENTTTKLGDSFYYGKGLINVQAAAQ

T2: Protease1 (subtilisin 309) (Lederbergia lenta, UniProt P29600)
T2 sequence (P29600 1-269): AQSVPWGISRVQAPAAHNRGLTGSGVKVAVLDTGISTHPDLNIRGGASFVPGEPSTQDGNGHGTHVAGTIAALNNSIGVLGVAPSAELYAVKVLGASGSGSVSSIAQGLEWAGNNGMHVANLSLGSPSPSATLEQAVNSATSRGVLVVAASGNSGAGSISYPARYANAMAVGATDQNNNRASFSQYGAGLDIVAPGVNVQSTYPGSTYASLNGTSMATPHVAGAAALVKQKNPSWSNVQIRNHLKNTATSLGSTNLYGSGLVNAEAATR

T3: Protease1 (subtilisin 309) (Bacillus lentus)
T3 chain: T2 sequence (P29600 1-269)

T4: Protease2 (variant of subtilisin 309) (Artificial sequence)
T4 chain: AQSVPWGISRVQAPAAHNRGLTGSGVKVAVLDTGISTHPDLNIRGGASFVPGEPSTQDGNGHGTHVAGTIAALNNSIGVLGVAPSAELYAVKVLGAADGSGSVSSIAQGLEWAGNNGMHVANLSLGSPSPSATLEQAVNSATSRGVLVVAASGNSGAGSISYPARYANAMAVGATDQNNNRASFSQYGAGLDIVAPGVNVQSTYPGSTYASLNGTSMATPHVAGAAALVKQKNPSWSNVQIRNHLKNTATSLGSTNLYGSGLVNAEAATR

B1: Protease4: subtilisin protease, SEQ ID NO: 4 (subtilisin BPN′) (protein)
chain: T1 chain
modifications: BPN′ variant
B2: Protease1: subtilisin protease, amino acid sequence SEQ ID NO: 1 (subtilisin 309) (protein, listed as Bacillus lentus)
chain: T2 sequence (P29600 1-269)
B3: Protease3: subtilisin protease, SEQ ID NO: 3 (variant of subtilisin 309) (protein)
chain: T4 chain with A97S, D98E
modifications: variant of SEQ ID NO 1
B4: Protease2: subtilisin protease, SEQ ID NO: 2 (variant of subtilisin 309) (protein)
chain: T4 chain
modifications: variant of SEQ ID NO 1

What was measured:
[1] = logarithmic stability constant of the cation/chelator complex; ionic strength of 0.1 M, 25° C.; cited from earlier work
[2] = molecular target: Protease4 (subtilisin BPN′) (Bacillus amyloliquefaciens, UniProt P00782, Y324L); assay: Storage stability of Protease4 in liquid ADW detergent (residual protease activity, N,N-dimethylcasein hydrolysis); assay type: biochemical; conditions: Detergent A, Example 2
Excerpt: (§1) Chemicals used as buffers and substrates were commercial products of at least reagent grade. Protease1, Protease2, Protease3, and Protease4, as used in the examples below, are subtilisin proteases. Protease1 has the amino acid sequence shown in SEQ ID NO: 1 (subtilisin 309). Protease2 has the amino acid sequence shown in SEQ ID NO: 2 (variant of subtilisin 309). Protease3 has the amino acid sequence shown in SEQ ID NO: 3 (variant of subtilisin 309). Protease4 has the amino acid sequence shown in SEQ ID NO: 4 (subtilisin BPN′).
Various peptide aldehydes were produced, all with a purity >80%. The peptide aldehydes were dissolved in DMSO to a concentration of 10 mg/ml before use.
(§2) To detergent A from Example 1, the following amount of enzyme and different inhibitors (peptide aldehydes) were added, all samples normalized to 100 g of detergent. […] Three subtilisin proteases were used: Protease1, Protease2, and Protease4, all in concentration of 0.04 g active enzyme protein per gram of enzyme solution.
(§3) The detergents were placed in closed glasses at 37° C. for 2 weeks. Residual activity of protease was measured (by comparison to a reference stored at −18° C.) using standard enzyme analytical method (protease activity measured by hydrolysis of N,N-dimethylcasein at 40° C., pH=8.3).

[3] = molecular target: T1, Protease4 (subtilisin BPN′); assay: cell-based or functional assay
[4] = molecular target: T2, Protease1 (subtilisin 309); assay: Storage stability of Protease1 in liquid ADW detergent (residual protease activity, N,N-dimethylcasein hydrolysis); assay type: biochemical; conditions: Protease1, no inhibitor, Detergent A, Example 2
Protocol: as §1, with “Protease2 has the amino acid sequence shown in SEQ ID NO: 2 (variant of subtilisin 309). Protease3 has the amino acid sequence shown in SEQ ID NO: 3 (variant of subtilisin 309).” left out
as §2, §3

[5] = molecular target: T3, Protease1 (subtilisin 309); assay: cell-based or functional assay
[6] = molecular target: T4, Protease2 (variant of subtilisin 309); assay: cell-based or functional assay
[7] = molecular target: Protease3 (variant of subtilisin 309) (Lederbergia lenta, UniProt P29600, INS97E); assay: Storage stability of Protease3 in liquid ADW detergent (residual protease activity, N,N-dimethylcasein hydrolysis); assay type: biochemical; conditions: Protease3, no inhibitor
Protease3 (variant of subtilisin 309), sequence (P29600 other isoform, or with tags, fused parts or gaps INS97E): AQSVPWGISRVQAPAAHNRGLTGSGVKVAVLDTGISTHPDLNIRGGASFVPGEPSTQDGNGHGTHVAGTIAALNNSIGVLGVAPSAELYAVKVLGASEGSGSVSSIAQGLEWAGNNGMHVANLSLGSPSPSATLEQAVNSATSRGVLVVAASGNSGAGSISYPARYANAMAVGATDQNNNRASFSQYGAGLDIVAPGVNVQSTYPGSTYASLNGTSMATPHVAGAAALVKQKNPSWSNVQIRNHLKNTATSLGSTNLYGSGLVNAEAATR
Protocol: as §1, with “Protease2 has the amino acid sequence shown in SEQ ID NO: 2 (variant of subtilisin 309). Protease3 has the amino acid sequence shown in SEQ ID NO: 3 (variant of subtilisin 309).” left out
(§4) The peptide aldehyde hydrosulfite adduct described above was dissolved in 40% propylene glycol and water was added to make a 24% w/w solution of the adduct.
(§5) [formula] […] Protease2 and Protease3 were used in concentrations of 0.04 g active enzyme protein per gram of enzyme solution.
as §3

[8] = molecular target: Protease2 (variant of subtilisin 309) (Lederbergia lenta, UniProt P29600, DUP96-96/S97D); assay: Storage stability of Protease2 in liquid ADW detergent (residual protease activity, N,N-dimethylcasein hydrolysis); assay type: biochemical; conditions: Protease2, no inhibitor
Protocol: as §1, with “Protease2 has the amino acid sequence shown in SEQ ID NO: 2 (variant of subtilisin 309). Protease3 has the amino acid sequence shown in SEQ ID NO: 3 (variant of subtilisin 309).” left out
as §4, §5, §3, §2

| Molecule | Log KCa [1] | other results |
| --- | --- | --- |
| O=P(O)(O)CN(CP(=O)(O)O)CP(=O)(O)O [AMP, Amino-tris-(methylene-phosphonic acid)] | 1.7 |  |
| O=C([O-])CC[C@@H](C(=O)[O-])N(CC(=O)[O-])CC(=O)[O-].[Na+].[Na+].[Na+].[Na+] [GLDA, L-glutamic acid N,N-diacetic acid tetra sodium salt] | 5.2 |  |
| O=P(O)(O)OP(=O)(O)O [Pyrophosphate] | 5 |  |
| O=C(O)CN(CCN(CC(=O)O)CC(=O)O)CC(=O)O [EDTA, Ethylenediaminetetraacetic acid] | 10.7 |  |
| O=P(O)(O)CN(CCN(CP(=O)(O)O)CP(=O)(O)O)CCN(CP(=O)(O)O)CP(=O)(O)O [DTPMP, Diethylenetriamine Penta(Methylene Phosphonic acid)] | 7.1 |  |
| CC(O)(P(=O)(O)O)P(=O)(O)O [HEDP, 1-Hydroxy Ethylidene-1,1-Diphosphonic Acid] | 6 |  |
| CC(C(=O)O)N(CC(=O)O)CC(=O)O (stereo not drawn) [MGDA, methylglycinediacetic acid] | 7 |  |
| O=P(O)(O)CN(CP(=O)(O)O)CP(=O)(O)O [NTMP, Nitrilo trimethylene phosphonic acid] | 7.6 |  |
| O=C(O)CC(NC(CC(=O)O)C(=O)O)C(=O)O (stereo not drawn) [IDS, iminodisuccinic acid] | 5.2 |  |
| O=C(O)CN(CC(=O)O)CC(=O)O [NTA, Nitrilotriacetic acid] | 6.4 |  |
| O=P(O)(O)OP(=O)(O)OP(=O)(O)O [STPP, sodium tripolyphosphate] | 5.36 |  |
| O=C([O-])[O-].[Na+].[Na+] [Carbonate, sodium carbonate] | 7.8 |  |
| O=C(O)CC(O)(CC(=O)O)C(=O)O [Citric acid] | 3.5 |  |
| Moc-Val-Ala-Leu-H (Moc-Val-Ala-Leu-{aldehyde′}; reading uncertain; also: printed as Moc-Val-Ala-Leu-H) [peptide aldehyde, Moc is methoxycarbonyl] |  | Residual protease activity after two weeks at 37° C. ([2]; Protease4 with 3.3 mg peptide aldehyde/100 g (mole ratio 3.2)): 57% |
| O=C(O)CC(NCCNC(CC(=O)O)C(=O)O)C(=O)O (mixture of isomers) [EDDS, ethylenediaminedisuccinic acid] | 4.6 |  |
| B1 |  | Residual protease activity after two weeks at 37° C. ([2]; Protease4, no inhibitor): 5% |
| Moc-Val-Ala-Leu-aldehyde (also: C-terminal aldehyde on Leu) [Moc-Val-Ala-Leu-H] |  | Residual protease activity after two weeks at 37° C. [3]: 57% |
| B2 |  | Residual protease activity after two weeks at 37° C. [4]: 25% |
| Cbz-Gly-Ala-Tyr-aldehyde (also: C-terminal aldehyde on Tyr) [Cbz-Gly-Ala-Tyr-H] |  | Residual protease activity after two weeks at 37° C. [5]: 81%; Residual protease activity after two weeks at 37° C. [6]: 86% |
| B3 |  | Residual protease activity after two weeks at 37° C. ([7]; Detergent A (invention)): 6%; Residual protease activity after two weeks at 37° C. ([7]; Detergent B (invention)): 44%; Residual protease activity after two weeks at 37° C. ([7]; Detergent C (reference)): 74% |
| B4 |  | Residual protease activity after two weeks at 37° C. ([8]; Detergent A (invention), Example 1): 1%; Residual protease activity after two weeks at 37° C. ([8]; Detergent A, Example 2): 1%; Residual protease activity after two weeks at 37° C. ([8]; Detergent B (invention), Example 1): 10%; Residual protease activity after two weeks at 37° C. ([8]; Detergent C (reference), Example 1): 76% |
